The structures appear in SMILES notation.

The target of one assay is GTPase KRas (Homo sapiens, UniProt P01116, G12V). The assay can be described thus: Inhibition of alexa fluor 647-labeled kinase tracer 314 binding to biotinylated-KRAS G12V mutant (unknown origin) measured after 60 mins by HTRF competition binding assay.
Conditions: not given
Regarding `CC(C)C[C@H](NC(=O)[C@H]1COCc2cn(nn2)CCCCC(=O)NCC(=O)N2CCC[C@H]2C(=O)N[C@@H](Cc2cccc3ccccc23)C(=O)N1)C(N)=O`, the negative logarithm of the IC50 (pIC50) is listed as below 4.

Staying with this assay, now noted: read-out: IC50.
In the case of `CC[C@@H](C)[C@@H]1NC(=O)[C@@H]2CCCN2C(=O)[C@H](Cc2ccc(O)cc2)NC(=O)[C@@H](NC(=O)[C@H](CC(=O)O)NC(C)=O)CCCn2nncc2COC[C@@H](C(=O)N[C@@H](CC(C)C)C(=O)N[C@@H](CC(C)C)C(=O)N2CCC[C@H]2C(N)=O)NC1=O`, the IC50 was above 89 µM.

Regarding `CC(C)C[C@H](NC(=O)[C@@H]1COCc2cnnn2CCCCC(=O)NCC(=O)N2CCC[C@H]2C(=O)N[C@@H](CC2CC2)C(=O)N1)C(N)=O`, the IC50 was 32 µM. Same read-out and setting: with `CCCC[C@H](NC(=O)[C@@H]1COCc2cnnn2CCCCC(=O)NCC(=O)N2CCC[C@H]2C(=O)N[C@@H](Cc2cccc3ccccc23)C(=O)N1)C(N)=O` the figure was 100 µM; with `CCCC[C@@H]1NC(=O)[C@@H]2CCCN2C(=O)CNC(=O)CCCCn2nncc2COC[C@@H](C(=O)N[C@@H](CC(C)C)C(N)=O)NC1=O`, 48 µM. The same measure, in the same setting: with `CC(C)C[C@H](NC(=O)[C@@H]1COCc2cnnn2CCCCC(=O)NCC(=O)N2CC[C@H]2C(=O)N[C@@H](Cc2cccc3ccccc23)C(=O)N1)C(N)=O` the figure was 32 µM; with `CC(C)C[C@H](NC(=O)[C@@H]1COCc2cnnn2CCCCC(=O)NCC(=O)N2CCC[C@H]2C(=O)N[C@@H](Cc2cccnc2)C(=O)N1)C(N)=O`, 41 µM. On the same count and under the same terms, then `CC(C)C[C@H](NC(=O)[C@@H]1COCc2cnnn2CCCCC(=O)N[C@H](CCC(=O)O)C(=O)N2CCC[C@H]2C(=O)N[C@@H](Cc2cccc3ccccc23)C(=O)N1)C(N)=O`, with 100 µM; and `CC(C)C[C@H](NC(=O)[C@@H]1COCc2cnnn2CCCCC(=O)NCC(=O)N2CCC[C@H]2C(=O)N[C@@H](Cc2ccc(Cl)cc2)C(=O)N1)C(N)=O`, with above 74 µM; and `CC(C)C[C@H](NC(=O)[C@@H]1COCc2cnnn2CCCCC(=O)N[C@@H](CCC(=O)O)C(=O)N2CCC[C@H]2C(=O)N[C@@H](Cc2cccc3ccccc23)C(=O)N1)C(N)=O`, with 49 µM. With `CC(C)C[C@H](NC(=O)[C@@H]1COCc2cnnn2CCCCC(=O)NCC(=O)N2CCC[C@H]2C(=O)N[C@H](Cc2ccccc2)C(=O)N1)C(N)=O`, the IC50 was above 82 µM. For `CC(C)C[C@H](NC(=O)[C@H]1CCn2nncc2CCCC(=O)NCC(=O)N2CCC[C@H]2C(=O)N[C@@H](Cc2cccc3ccccc23)C(=O)N1)C(N)=O`, the IC50 worked out at 13 µM. In the case of `CC(C)C[C@H](NC(=O)[C@H]1COCc2cn(nn2)CCCCC(=O)NCC(=O)N2CCC[C@H]2C(=O)N[C@@H](Cc2cccc3ccccc23)C(=O)N1)C(N)=O`, the IC50 was above 100 µM.

On to `NC(=O)C[C@H](NC(=O)[C@@H]1COCc2cnnn2CCCCC(=O)NCC(=O)N2CCC[C@H]2C(=O)N[C@@H](Cc2cccc3ccccc23)C(=O)N1)C(N)=O`, for which the IC50 worked out at 48 µM. Same read-out and setting: with `CC(C)C[C@H](NC(=O)[C@H]1Cc2cnnn2CCCCC(=O)NCC(=O)N2CCC[C@H]2C(=O)N[C@@H](Cc2cccc3ccccc23)C(=O)N1)C(N)=O` the figure was 65 µM; with `CC(C)C[C@H](NC(=O)[C@@H]1COCc2cnnn2CCCCC(=O)NCC(=O)N2C[C@H](O)C[C@H]2C(=O)N[C@@H](Cc2cccc3ccccc23)C(=O)N1)C(N)=O`, 95 µM. For `NC(=O)[C@@H](NC(=O)[C@@H]1COCc2cnnn2CCCCC(=O)NCC(=O)N2CCC[C@H]2C(=O)N[C@@H](Cc2cccc3ccccc23)C(=O)N1)C1CCCCC1`, the IC50 turned out to be 78 µM. On the same count and under the same terms, with `C[C@H](NC(=O)[C@@H]1COCc2cnnn2CCCCC(=O)NCC(=O)N2CCC[C@H]2C(=O)N[C@@H](Cc2cccc3ccccc23)C(=O)N1)C(N)=O` the figure was 37 µM. Still for that read-out and setting: with `CC(C)C[C@H](NC(=O)[C@@H]1COCc2cnnn2CCCCC(=O)NCC(=O)N2CCC[C@H]2C(=O)N[C@@H](Cc2ccc3ccccc3c2)C(=O)N1)C(N)=O` the figure was 9.5 µM. `CC(=O)N[C@@H](CCC(=O)O)C(=O)N[C@H]1CCCn2nncc2COC[C@@H](C(=O)N[C@@H](CC(C)C)C(=O)N[C@@H](C)C(=O)N2CCC[C@H]2C(N)=O)NC(=O)[C@H](Cc2cccc3ccccc23)NC(=O)[C@@H]2CCCN2C(=O)CNC1=O`: the IC50 is above 83 µM.

Staying with this assay, now noted: read-out: pIC50 (converted).
In the case of `CC[C@@H](C)[C@@H]1NC(=O)[C@@H]2CCCN2C(=O)[C@H](Cc2ccc(O)cc2)NC(=O)[C@@H](NC(=O)[C@H](CC(=O)O)NC(C)=O)CCCn2nncc2COC[C@@H](C(=O)N[C@@H](CC(C)C)C(=O)N[C@@H](CC(C)C)C(=O)N2CCC[C@H]2C(N)=O)NC1=O`, the IC50 was above 79.4 µM.

`CC(=O)N[C@@H](CCC(=O)O)C(=O)N[C@H]1CCCn2nncc2COC[C@@H](C(=O)N[C@@H](CC(C)C)C(=O)N[C@@H](C)C(=O)N2CCC[C@H]2C(N)=O)NC(=O)[C@H](Cc2cccc3ccccc23)NC(=O)[C@@H]2CCCN2C(=O)CNC1=O`: the IC50 is above 79.4 µM.

(Values after ChEMBL document CHEMBL5055671, “Targeting a Novel KRAS Binding Site: Application of One-Component Stapling of Small (5-6-mer) Peptides” (J Med Chem, 2021).)
